Data: patent publication US4855304A, “Dinucleoside pyrophosphates and pyrophosphate homologs as plant antivirals” (Repligen Corporation, priority 1985, dated 1989)
Read-outs that look alike come from different tables or passages of the source.

Experiments:
[1] = tested on: TMV (tobacco mosaic virus) replication in intact N. glutinosa plants; assay: Antiviral activity in N. glutinosa intact plants, infectivity test (local lesions); assay type: in vivo, tobacco mosaic virus; Nicotiana glutinosa; details: for induced resistance to TMV infection in the non-treated half-leaf: 1 μM (10^-6 M), in words
Procedure: (§1) Nicotiana glutinosa and N. tabacum var. samsum plants were grown in potting medium in greenhouse conditions (25±3° C., and constant illumination). The plants were fertilized with a commercial fertilizer every two weeks. Plants were used at 5-8 leaf stage (Devash, Y., Biggs, S. and Sela, I. [1982] Science 216: 1415-1416; Devash, Y. et al. [1984] Jour. Biol. Chem. 259: 3482-3486).
The ability of the antiviral dinucleotides to inhibit TMV replication in intact N. glutinosa plants (containing N-gene for TMV localization) was determined by infectivity tests. Solutions containing 5 μg/ml TMV, 0.1 μg/ml carborundum, and antiviral dinucleotide were applied to 5 half-leaves of N. glutinosa. The opposite half-leaves served as controls and were inoculated with infecting solution containing TMV and carborundum but no dinucleotides. The infection was allowed to proceed 48 hr. Inhibition of TMV replication was calculated as the percent of local lesions produced in antiviral compound treated half-leaves, as compared to control half-leaves.

[2] = tested on: TMV (tobacco mosaic virus) in N. tabacum plants; assay: Root application to N. tabacum intact plants (TMV content by ELISA); assay type: in vivo, tobacco mosaic virus; Nicotiana tabacum; details: for suppression (inhibition) of the virus: 1 μM (10^-6 M), exposure of plant roots; for % Protection / ng TMV/g of leaves: 1 μM, roots, 2 hr; for ng TMV/g of leaves: control 200
Procedure: as §1
Nicotiana tabacum plants were used as a source of plant tissue in which TMV is spread systemically.
(a) Root application: N. tabacum plants were removed from their pots and transferred into 50 ml tubes containing 10 ml of 10 mM HEPES-KOH, pH 7.6, and the antiviral dinucleotides. Two hr later, plants were transferred into 50 ml tubes lacking the antiviral compound and were inoculated by TMV as described above. Twenty-four hr later leaves were homogenized in 0.01M sodium phosphate buffer, pH 7.6, (1 g leaves/3 ml buffer) and TMV content was determined by ELISA.
(§2) The TMV content of the homogenates was determined by ELISA essentially by the method of Clark and Adams ([1977] J. Gen. Virol. 34: 475-483) but with the following order of layers on the microtiter plates.
(§3) (a) the γ-globulin fraction of a serum obtained from a chicken immunized against TMV was absorbed directly to the plate.
(§4) (b) The next layer was the tested sample (at various dilutions) or a series of purified TMV suspensions at known concentrations (calibration curve).
(§5) (c) The third layer was the γ-globulin from the serum of a TMV-immunized rabbit.
(§6) (d) The final layer was goat antibody to rabbit immunoglobulin G conjugated with alkaline phosphatase (Sigma). The release of phosphate from p-nitrophenyl phosphate due to the antibody-conjugated alkaline phosphatase was monitored spectrophotometrically with a Microplate reader (Dynatech Diagnostics, Inc. South Windham, ME) and was proportional to TMV concentration in a log linear manner for about two logs (<2 ng to>200 ng). (Devash, Y., Biggs, S. and Sela, I. [1982] Science 216: 1415-1416)
In order to establish the relationship of the induced resistance to the N-gene for viral localization and to the transmission ability of the compounds, a comparison between leaf application and root application of antiviral dinucleotides to N. tabacum plants was made. N. tabacum plants were removed into vials containing 10 ml of 10 mM HEPES-KOH, pH 7.6, and 1 μM of antiviral dinucleotide. The plant roots were allowed to remain in the solutions for 2 hr and then were transferred to vials containing the buffer without the antiviral compounds.
The plants then were infected with TMV as above. (See section 4. Antiviral activity on N. tabacum intact plants, paragraph [a].) Another group of N. tabacum plants was tested as described in the above-noted section, paragraph (b).

[3] = tested on: TMV (tobacco mosaic virus) replication in TMV-infected tobacco leaf discs; assay: Antiviral activity in TMV-infected leaf discs (TMV content by ELISA); assay type: cell-based, tobacco mosaic virus; leaf discs of N. tabacum var. samsun; design: key to TMV content: N.I.: no inhibition; details: for inhibition at 0.1 µM / inhibition at 0.2 µM: Tobacco mosaic virus, read-out: percent inhibition as related to control
Procedure: Assays for antiviral activity in TMV-infected leaf discs were done using leaves of N. tabacum var. samsun in which TMV is systemically spread. Leaves were mechanically inoculated with purified TMV (5 μg/ml in 0.01M sodium phosphate buffer, pH 7.6, containing 0.1 g/ml of carborundum as an abrasive). Immediately after infection, leaf discs (6.5 mm diameter) were punched out of the inoculated leaves and placed in a beaker containing 0.01M sodium phosphate, pH 7.6.
selected at random from this common pool and placed onto separate petri dishes, each containing 18 ml of 10 mM 4-(2-hydroxyethyl)-1-piperazine ethanesulfonic acid (HEPES)-KOH, pH 7.05, 188 mg/L Na2 HPO4 --7H2 O. […] At the end of the 1 hr incubation, the buffer containing the antiviral dinucleotide was replaced by a buffer lacking the antiviral dinucleotide for another hr. The discs were then washed with 0.01M sodium phosphate, pH 7.6, and were allowed to incubate for an additional 72 hr in phosphate buffer (Devash, Y., Biggs, S. and Sela, I. [1982] Science 216: 1415-1416; Devash, Y. et al. [1984] J. Biol. Chem. 259: 3482-3486). The discs were homogenized in 0.01M sodiuM phosphate buffer, pH 7.6, and the TMV content was determined by enzyme-linked immunosorbent assay (ELISA) as described below.
as §2, §3, §4, §5, §6
The γ-globulin fraction of serum obtained from chickens and rabbits immunized against TMV were generous gifts from Professor Ilan Sela, The Hebrew University of Jerusalem, Agriculture Faculty, Rehobot, Israel.

[4] = 10 nM (10^-8 M), non-treated half-leaf
[5] = 10 nM (10^-8 M), treated half-leaf
[6] = 100 nM (10^-7 M), non-treated half-leaf
[7] = 100 nM (10^-7 M), treated half-leaf
[8] = 1000 nM (10^-6 M), non-treated half-leaf
[9] = 1000 nM (10^-6 M), treated half-leaf
[10] = 100 nM, treatment with [Ca^+2] coprecipitation, control 75
[11] = 100 nM, treatment without [Ca^+2] coprecipitation, control 56
[12] = 200 nM, treatment with [Ca^+2] coprecipitation, control 75
[13] = 200 nM, treatment without [Ca^+2] coprecipitation, control 56
[14] = 100 nM, treatment with [Ca^+2] coprecipitation
[15] = 100 nM, treatment without [Ca^+2] coprecipitation
[16] = 200 nM, treatment with [Ca^+2] coprecipitation
[17] = 200 nM, treatment without [Ca^+2] coprecipitation

Compound	percent protection as compared to control TMV infected leaves [1, 4]	percent protection as compared to control TMV infected leaves [1, 5]	percent protection as compared to control TMV infected leaves [1, 6]	percent protection as compared to control TMV infected leaves [1, 7]	induced resistance to TMV infection in the non-treated half-leaf [1]	percent protection as compared to control TMV infected leaves [1, 8]	percent protection as compared to control TMV infected leaves [1, 9]	suppression (inhibition) of the virus [2]	% Protection [2]	ng TMV/g of leaves [2]	TMV content [3, 10]	TMV content [3, 11]	TMV content [3, 12]	TMV content [3, 13]	inhibition at 0.1 µM [3, 14]	inhibition at 0.1 µM [3, 15]	inhibition at 0.2 µM [3, 16]	inhibition at 0.2 µM [3, 17]
Nc1nc2c(ncn2[C@@H]2O[C@H](COP(=O)(O)OP(=O)(O)OC[C@H]3O[C@@H](n4cnc5c(N)ncnc54)[C@H](O)[C@@H]3O)[C@@H](O)[C@H]2O)c(=O)[nH]1 [A5'pp5'G, adenosine 5',5'"-p^1,p^2 -diphospho-guanosine]	59.8%	84.8%	44.7%	89.5%	resulted in an induced resistance to TMV infection even in the non-treated half-leaf	100%	100%	98-100%	98%	4 ng TMV/g of leaves	–	–	–	–	–	–	–	–
Nc1ncnc2c1ncn2[C@@H]1O[C@H](COP(=O)(O)OP(=O)(O)OP(=O)(O)OC[C@H]2O[C@@H](n3cnc4c(N)ncnc43)[C@H](O)[C@@H]2O)[C@@H](O)[C@H]1O [A5'ppp5'A, diadenosine 5',5"'-p^1,p3 -triphosphate]	80.3%	98.6%	100%	100%	resulted in an induced resistance to TMV infection even in the non-treated half-leaf	100%	100%	–	51%	98 ng TMV/g of leaves	65 ngTMV/ml	N.I.	38 ngTMV/ml	N.I.	13%	0%	50%	0%
Nc1ncnc2c1ncn2[C@@H]1O[C@H](COP(=O)(O)OP(=O)(O)OC[C@H]2O[C@@H](n3cnc4c(N)ncnc43)[C@H](O)[C@@H]2O)[C@@H](O)[C@H]1O [A5'pp5'A, diadenosine 5',5'"-p^1,p^2 -diphosphate]	68.4%	96.0%	54.6%	95.4%	resulted in an induced resistance to TMV infection even in the non-treated half-leaf	100%	100%	98-100%	100%	0 ng TMV/g of leaves	48 ngTMV/ml	N.I.	44 ngTMV/ml	N.I.	36%	0%	41%	0%
